The record followed here is patent US10188756B2, “Imaging histone deacetylases with a radiotracer using positron emission tomography” (THE GENERAL HOSPITAL CORPORATION, priority 2013, dated 2019).

Assay [1] deals with HDAC1 (Homo sapiens (Human), UniProt Q13547). The assay can be described thus: HDAC inhibition assay. As to conditions: read-out: IC50 HDAC1.
Protocol: (§2) All histone deacetylases were purchased from BPS Bioscience. […] All the other reagents were purchased from Sigma-Aldrich. Caliper EZ reader II system was used to collect all data. […] Purified HDACs were incubated with 2 μM carboxyfluorescein (FAM)-labeled acetylated or trifluoroacetylated peptide substrate (Broad Substrate A and B respectively) and test compound for 60 minutes at room temperature, in HDAC assay buffer that contained 50 mM HEPES (pH 7.4), 100 mM KCl, 0.01% BSA and 0.001% Tween-20. […] Substrate and product were separated electrophoretically and fluorescence intensity in the substrate and product peaks was determined and analyzed by Labchip EZ Reader. The reactions were performed in duplicate for each sample. IC50 values were automatically calculated by Origin 8 using 4 Parameter Logistic Model. The percent inhibition was plotted against the compound concentration, and the IC50 value was determined from the logistic dose-response curve fitting by Origin 8.0 software.
Assay [2] has as its target HDAC3 (Homo sapiens (Human), UniProt O15379). Nature of the assay: HDAC inhibition assay. The settings on record: read-out: IC50 HDAC3.
Protocol: as §2
The target in assay [3] is HDAC6 (Homo sapiens (Human), UniProt Q9UBN7). Nature of the assay: HDAC inhibition assay. In kind it is biochemical. An excerpt: (§1) All histone deacetylases were purchased from BPS Bioscience. […] All the other reagents were purchased from Sigma-Aldrich.
The target of assay [4] is HDAC2 (Homo sapiens (Human), UniProt Q92769). The assay can be described thus: HDAC inhibition assay. In kind it is biochemical.
From the text: as §1

The target of assay [5] is HDAC8 (Homo sapiens (Human), UniProt Q9BY41). The assay can be described thus: HDAC inhibition assay. In kind it is biochemical.
From the text: as §1

Assay [6] deals with HDAC7 (Homo sapiens (Human), UniProt Q8WUI4). The assay can be described thus: HDAC inhibition assay. As to conditions: read-out: IC50 HDAC7.
Protocol: as §2
Assay [7] deals with HDAC5 (Homo sapiens (Human), UniProt Q9UQL6). Nature of the assay: HDAC inhibition assay. The settings on record: read-out: IC50 HDAC5.
Protocol: as §2
In assay [8] the target is HDAC4 (Homo sapiens (Human), UniProt P56524). Nature of the assay: HDAC inhibition assay. As to conditions: read-out: IC50 HDAC4.
Protocol: as §2
In assay [9] the target is HDAC9 (Homo sapiens (Human), UniProt Q9UKV0). Nature of the assay: HDAC inhibition assay. As to conditions: read-out: IC50 HDAC9.
Protocol: as §2
Assay [10] deals with histone deacetylases. The assay can be described thus: Baboon PET/MR imaging with [11C]CN133. In kind it is in vivo, baboon (Papio anubis). The settings on record: for VT (Ichese MAI), CN147 blocked / VT (Logan Plot), CN147 blocked: [11C]CN133 VT after CN147 0.5 mg/kg intravenous; for VT (Ichese MAI), % Difference / VT (Logan Plot), % Difference: baseline vs CN147 blocked. Here is the method:
A female Papio Anubis baboon, deprived of food for 12 hours prior to the study, was administered intramuscular ketamine (10 mg/kg) and intubated. For maintenance of anesthesia throughout the study, the baboon was provided 1%-4% isoflurane (Forane) in a mixture of medical oxygen and nitrogen. The baboon was catheterized antecubitally for radiotracer injection and a radial arterial line was placed for metabolite analysis. MR-PET images were acquired in a BiographmMR scanner (Siemens, Munich, Germany), and PET compatible 8-channel coil arrays for non-human primate brain imaging with a PET resolution of 5 mm and field of view of 59.4 cm and 25.8 cm (transaxial and axial, respectively). Dynamic PET image acquisition was initiated followed by administration of the radiotracer in a homogenous solution of 10% ethanol and 90% isotonic saline. An […] sequence began after 30 minutes of the baseline scan for anatomic coregistration. […] Both scans were carried out in the same animal on the same day, separated by 2.5 hours. In both scans, 4-5 mCi of [^11C]CN133 was administered to the baboon. Dynamic data from the PET scans were recorded in list mode and corrected for attenuation. Baboon data were reconstructed using a 3D-OSEM method resulting in a full width at half-maximum resolution of 4 mm.
Volumes of interest (VOIs) were drawn manually as spheres in brain regions guided by high resolution MR structural images and summed PET data, with a radius no less than 4 mm. A common VOI mask was applied to both baboon scans. Time-activity curves (TACs) were exported in terms of decay corrected activity per unit volume at specified time points with gradually increasing intervals. The TACs were expressed as percent injected dose per unit volume for analysis.
Arterial samples collected during imaging from the baboon were centrifuged to obtain plasma, which was then removed and placed in an automated gamma counter that was calibrated to the PET scanner. Metabolite analysis was conducted on a custom automated robot fitted with Phenomenex SPE Strata-X 500 mg solid phase extraction cartridges that were primed with ethanol (2 mL) and deionized water (20 mL). Protein precipitation was achieved by addition of plasma (300 μL) to acetonitrile (300 μL), which was centrifuged for 1 minute to obtain protein-free plasma (PFP). 300 μL of PFP/acetonitrile solution was diluted into deionized water (3 mL), loaded onto the C18 cartridge, and removed of polar metabolites with 100% water. Next, a series of extractions were performed using water and acetonitrile in quantities: 95:5, 90:10, 85:15, 80:20, 70:30, 60:40, 30:70 and 100% acetonitrile at a volume of 4 mL. A control experiment was performed before metabolite analysis to determine the retention of the parent compound by injection of a small amount of [^11C]CN133 onto a test series of extraction cartridges. Each sample was counted in a WIZARD2 Automatic Gamma Counter to determine the presence of radiolabeled metabolites.
CN147 blocks ˜40% of [^11C]CN133 binding in NHP whole brain and in cerebellum. Plasma-normalized data were evaluated by volume of interest analysis (VOI) at the whole brain level and at level of the cerebellum. VOI data were then applied to distribution volume (VT) data analysis by two graphical methods using PMOD software, tabulated in Tables A and B below. Logan Plot and Ichese MAI methods were clarified from previous NHP imaging analyses to provide an accurate VT estimate (+/− standard error) from data beginning 35 min after injection of radiotracer (t*=35 min) until the end of the scan (t=80min).

The structures appear in SMILES notation. Bounds are passed on as bounds.

Sequence of HDAC8 (Q9BY41 whole entry): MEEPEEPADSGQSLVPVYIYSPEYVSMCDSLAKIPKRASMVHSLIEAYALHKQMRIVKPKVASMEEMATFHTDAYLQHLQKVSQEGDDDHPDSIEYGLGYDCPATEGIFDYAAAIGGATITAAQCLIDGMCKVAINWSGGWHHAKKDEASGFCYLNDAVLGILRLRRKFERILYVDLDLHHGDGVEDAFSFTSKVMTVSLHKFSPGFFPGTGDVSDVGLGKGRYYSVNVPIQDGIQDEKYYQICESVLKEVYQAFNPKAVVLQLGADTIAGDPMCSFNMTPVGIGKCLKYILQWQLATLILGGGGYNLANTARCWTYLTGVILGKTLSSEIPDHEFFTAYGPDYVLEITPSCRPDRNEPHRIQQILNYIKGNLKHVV
Sequence of HDAC2 (Q92769 whole entry): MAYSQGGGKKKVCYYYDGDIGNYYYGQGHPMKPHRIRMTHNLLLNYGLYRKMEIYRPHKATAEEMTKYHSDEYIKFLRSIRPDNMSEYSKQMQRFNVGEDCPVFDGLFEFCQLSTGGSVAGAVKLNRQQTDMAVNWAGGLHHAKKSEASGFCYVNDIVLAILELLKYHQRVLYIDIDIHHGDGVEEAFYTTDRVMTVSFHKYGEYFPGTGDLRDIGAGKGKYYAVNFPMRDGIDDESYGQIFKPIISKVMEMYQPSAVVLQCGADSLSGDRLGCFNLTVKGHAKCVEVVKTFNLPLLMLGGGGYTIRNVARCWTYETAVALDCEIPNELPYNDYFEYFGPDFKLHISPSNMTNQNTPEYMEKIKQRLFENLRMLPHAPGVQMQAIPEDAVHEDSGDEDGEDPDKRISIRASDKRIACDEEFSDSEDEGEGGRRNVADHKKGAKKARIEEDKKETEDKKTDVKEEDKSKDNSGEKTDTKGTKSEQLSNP
Sequence of HDAC9 (Q9UKV0 whole entry): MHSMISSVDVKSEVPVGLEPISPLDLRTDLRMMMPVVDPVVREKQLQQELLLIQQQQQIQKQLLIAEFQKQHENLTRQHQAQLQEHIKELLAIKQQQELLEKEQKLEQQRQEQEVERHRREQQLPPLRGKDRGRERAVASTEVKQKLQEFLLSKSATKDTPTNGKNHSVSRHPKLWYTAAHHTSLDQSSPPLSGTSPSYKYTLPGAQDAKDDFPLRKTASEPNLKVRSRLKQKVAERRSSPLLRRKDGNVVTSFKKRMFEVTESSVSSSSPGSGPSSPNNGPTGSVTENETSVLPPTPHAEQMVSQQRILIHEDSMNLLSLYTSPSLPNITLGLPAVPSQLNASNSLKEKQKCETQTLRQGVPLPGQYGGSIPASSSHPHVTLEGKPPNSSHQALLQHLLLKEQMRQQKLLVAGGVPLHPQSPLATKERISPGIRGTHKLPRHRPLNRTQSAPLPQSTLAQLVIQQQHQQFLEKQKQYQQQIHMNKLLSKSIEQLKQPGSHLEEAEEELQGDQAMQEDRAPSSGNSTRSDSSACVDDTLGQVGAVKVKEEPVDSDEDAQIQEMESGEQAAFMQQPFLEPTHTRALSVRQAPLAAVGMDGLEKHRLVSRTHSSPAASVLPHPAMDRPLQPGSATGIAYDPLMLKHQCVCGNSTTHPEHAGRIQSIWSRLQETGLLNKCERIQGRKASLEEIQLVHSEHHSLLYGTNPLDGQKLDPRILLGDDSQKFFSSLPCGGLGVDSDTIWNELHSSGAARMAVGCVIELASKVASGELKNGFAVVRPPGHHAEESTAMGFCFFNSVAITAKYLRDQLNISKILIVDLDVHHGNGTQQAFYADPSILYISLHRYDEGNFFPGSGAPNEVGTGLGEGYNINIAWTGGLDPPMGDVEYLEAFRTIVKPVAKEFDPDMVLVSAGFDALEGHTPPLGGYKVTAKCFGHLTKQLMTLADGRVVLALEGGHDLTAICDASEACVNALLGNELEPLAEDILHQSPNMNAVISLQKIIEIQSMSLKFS
Sequence of HDAC4 (P56524 whole entry): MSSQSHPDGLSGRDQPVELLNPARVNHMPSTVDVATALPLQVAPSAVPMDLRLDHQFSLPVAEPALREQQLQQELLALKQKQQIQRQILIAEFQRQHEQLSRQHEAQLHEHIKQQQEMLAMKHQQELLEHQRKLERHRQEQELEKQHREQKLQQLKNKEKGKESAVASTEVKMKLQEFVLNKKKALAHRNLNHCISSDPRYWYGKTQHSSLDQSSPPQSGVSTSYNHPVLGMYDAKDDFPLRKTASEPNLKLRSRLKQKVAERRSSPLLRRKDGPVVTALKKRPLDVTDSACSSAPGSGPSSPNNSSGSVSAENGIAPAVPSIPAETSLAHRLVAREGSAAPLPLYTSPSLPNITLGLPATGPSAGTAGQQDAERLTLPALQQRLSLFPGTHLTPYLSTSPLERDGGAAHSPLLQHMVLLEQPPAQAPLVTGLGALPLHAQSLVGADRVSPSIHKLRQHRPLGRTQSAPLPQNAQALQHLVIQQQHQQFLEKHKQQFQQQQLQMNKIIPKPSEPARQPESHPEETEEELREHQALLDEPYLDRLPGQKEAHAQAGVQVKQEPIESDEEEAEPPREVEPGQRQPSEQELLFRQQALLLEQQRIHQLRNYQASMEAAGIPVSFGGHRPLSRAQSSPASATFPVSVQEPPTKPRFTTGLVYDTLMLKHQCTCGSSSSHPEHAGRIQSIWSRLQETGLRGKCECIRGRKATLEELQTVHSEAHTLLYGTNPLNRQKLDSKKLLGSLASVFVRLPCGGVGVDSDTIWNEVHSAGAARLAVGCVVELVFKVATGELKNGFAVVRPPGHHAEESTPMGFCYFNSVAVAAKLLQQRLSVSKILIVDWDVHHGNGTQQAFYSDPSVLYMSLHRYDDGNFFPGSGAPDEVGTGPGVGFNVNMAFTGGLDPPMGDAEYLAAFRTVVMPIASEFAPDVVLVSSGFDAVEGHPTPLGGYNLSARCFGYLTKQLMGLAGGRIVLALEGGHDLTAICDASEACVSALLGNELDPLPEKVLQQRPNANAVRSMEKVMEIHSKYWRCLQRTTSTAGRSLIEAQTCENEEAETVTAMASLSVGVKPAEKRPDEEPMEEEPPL
Sequence of HDAC7 (Q8WUI4 whole entry): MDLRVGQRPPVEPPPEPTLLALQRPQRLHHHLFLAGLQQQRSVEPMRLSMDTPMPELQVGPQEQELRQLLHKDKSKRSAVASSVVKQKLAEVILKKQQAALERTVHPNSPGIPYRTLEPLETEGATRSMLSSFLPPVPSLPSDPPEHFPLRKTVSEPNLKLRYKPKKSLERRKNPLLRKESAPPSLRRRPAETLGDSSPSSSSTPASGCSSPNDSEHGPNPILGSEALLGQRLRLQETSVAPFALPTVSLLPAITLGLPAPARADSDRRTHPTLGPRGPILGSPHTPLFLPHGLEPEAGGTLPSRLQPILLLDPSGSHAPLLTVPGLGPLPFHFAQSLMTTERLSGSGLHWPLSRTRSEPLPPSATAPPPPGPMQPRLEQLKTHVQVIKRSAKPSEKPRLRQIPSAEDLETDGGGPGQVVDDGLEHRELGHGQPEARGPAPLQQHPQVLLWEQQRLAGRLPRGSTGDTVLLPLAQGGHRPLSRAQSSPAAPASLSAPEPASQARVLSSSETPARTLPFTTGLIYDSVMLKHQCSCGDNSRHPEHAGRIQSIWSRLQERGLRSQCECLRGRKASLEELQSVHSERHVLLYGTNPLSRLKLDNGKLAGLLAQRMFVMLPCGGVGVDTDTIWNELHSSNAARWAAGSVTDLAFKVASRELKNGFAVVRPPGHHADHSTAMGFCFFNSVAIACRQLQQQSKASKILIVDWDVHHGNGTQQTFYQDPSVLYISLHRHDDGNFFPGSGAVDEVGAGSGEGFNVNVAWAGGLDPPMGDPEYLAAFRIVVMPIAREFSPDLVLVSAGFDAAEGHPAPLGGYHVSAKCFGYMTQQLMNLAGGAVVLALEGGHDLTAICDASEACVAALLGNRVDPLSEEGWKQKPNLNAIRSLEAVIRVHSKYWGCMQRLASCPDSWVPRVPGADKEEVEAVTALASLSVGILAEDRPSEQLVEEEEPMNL
Sequence of HDAC3 (O15379 whole entry): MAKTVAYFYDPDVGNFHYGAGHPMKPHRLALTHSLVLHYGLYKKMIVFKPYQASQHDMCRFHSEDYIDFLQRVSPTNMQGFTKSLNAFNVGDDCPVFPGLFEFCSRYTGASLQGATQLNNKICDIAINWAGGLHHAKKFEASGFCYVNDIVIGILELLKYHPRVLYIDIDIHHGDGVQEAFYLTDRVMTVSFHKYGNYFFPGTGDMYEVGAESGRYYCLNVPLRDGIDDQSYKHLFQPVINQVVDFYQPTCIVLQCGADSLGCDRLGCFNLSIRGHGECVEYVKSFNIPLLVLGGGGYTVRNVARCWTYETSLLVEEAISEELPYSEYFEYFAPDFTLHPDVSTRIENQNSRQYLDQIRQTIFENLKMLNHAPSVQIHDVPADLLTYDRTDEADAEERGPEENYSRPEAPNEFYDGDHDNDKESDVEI
Sequence of HDAC3 (Q9Y618 395-489 partner): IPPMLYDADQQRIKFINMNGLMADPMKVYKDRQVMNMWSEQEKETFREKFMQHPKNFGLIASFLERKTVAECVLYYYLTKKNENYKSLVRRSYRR
Sequence of HDAC1 (Q13547 whole entry): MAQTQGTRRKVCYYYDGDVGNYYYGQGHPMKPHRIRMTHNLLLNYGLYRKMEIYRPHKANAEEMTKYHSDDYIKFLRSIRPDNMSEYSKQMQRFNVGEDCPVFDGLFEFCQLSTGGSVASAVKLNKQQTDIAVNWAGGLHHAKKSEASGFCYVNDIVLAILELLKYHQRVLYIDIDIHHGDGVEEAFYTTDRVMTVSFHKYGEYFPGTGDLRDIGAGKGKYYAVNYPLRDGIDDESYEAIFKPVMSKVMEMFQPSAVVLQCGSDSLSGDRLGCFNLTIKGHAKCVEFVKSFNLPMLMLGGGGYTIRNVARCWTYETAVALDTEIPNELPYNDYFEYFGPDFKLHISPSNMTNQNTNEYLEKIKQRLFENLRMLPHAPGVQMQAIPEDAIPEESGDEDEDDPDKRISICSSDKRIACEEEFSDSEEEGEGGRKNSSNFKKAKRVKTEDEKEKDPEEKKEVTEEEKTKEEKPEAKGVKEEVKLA

As a reminder, the IC50 is the point on the concentration scale where inhibition reaches its midpoint. On to `CCCCN(Cc1ccc(C(=O)NO)cc1)C(=O)Nc1ccccc1OC` [CN165], for which the IC50 was 96.7 nM in assay [1]; 143 nM in assay [2]; 2.13 nM in [3]; 307 nM in assay [4]; 493 nM in assay [5].
As to `CN(c1ccccc1)S(=O)(=O)c1cccc(/C=C/C(=O)NO)c1` [CN88], the IC50 was determined as 17.8 nM in [1]; 2020 nM in [6]; 13.7 nM in assay [2]; 7950 nM in assay [7]; 4.1 nM in [3]; 52.9 nM in [4]. For the same compound, the IC50 is 925 nM in assay [5], 3830 nM in [8] and over 10000 nM in assay [9].
As to `CNc1ccc(C(=O)NCCCCC(=O)NO)cc1` [CN51], the values for the IC50 in [1], in assay [2] and in [4] were 106 nM, 84.5 nM and 477 nM, respectively.
With `CN(Cc1ccc(/C=C/C(=O)Nc2ccccc2N)cc1)CC12CC3CC(CC(C3)C1)C2` [CN147], in assay [10] (Cerebellum VOI), the “VT (Ichese MAI), CN147 blocked” value was 11.68 ± 8.42; the “VT (Logan Plot), CN147 blocked” value is reported as 11.59 ± 3.37; the “VT (Ichese MAI), % Difference” value came to 39.95%; the “VT (Logan Plot), % Difference” value was determined as 39.89%. Also, the “blocking of [11C]CN133 binding” value in assay [10] (NHP whole brain and cerebellum) is listed as about 40%. Besides, in [10] (Whole Brain VOI), the “VT (Ichese MAI), CN147 blocked” value is listed as 8.92 ± 9.26; the “VT (Logan Plot), CN147 blocked” value was found to be 8.85 ± 3.06; the “VT (Ichese MAI), % Difference” value is listed as 39.11%; the “VT (Logan Plot), % Difference” value turned out to be 38.80%.
Regarding `COc1ccc(/C=C/C(=O)NO)cc1` [CN87], the IC50 in [1] was 301 nM; in assay [6] it was over 70000 nM; in assay [2], 238 nM; in assay [7], over 10000 nM; in [3], 23.2 nM; in assay [4] it was 833 nM. Also, the values for the IC50 in assay [5], in [8] and in assay [9] were 2570 nM, over 70000 nM and over 70000 nM, respectively.
`CN(Cc1ccc(/C=C/C(=O)NO)cc1F)CC12CC3CC(CC(C3)C1)C2` [CN149]: the concentration for half-maximal inhibition (IC50) in [1] was 0.78 nM; in [6], over 50000 nM; in assay [2] it was 0.76 nM; in assay [7], 4750 nM; in [3], 11.7 nM; in [5] it was over 50000 nM. Moreover, the IC50 was 20300 nM in assay [8] and over 50000 nM in [9].
Take `CNc1ccc(C(=O)NCCCCCCC(=O)NO)cc1` [CN53]: the figures for the half-maximal inhibitory concentration (IC50) in assay [1], in [2] and in assay [4] were 6.1 nM, 5.7 nM and 11.9 nM, respectively.
Regarding `COc1ccc2c(c1)C(=O)N(CCCCCC(=O)NO)c1ccccc1S2` [CN112], the 50% inhibitory concentration (IC50) in assay [1] was 1.2 nM; in assay [2], 1.1 nM; in [7], over 20000 nM; in assay [3], 2.3 nM; in [4] it was 4 nM; in [5], over 70000 nM. Further, the half-inhibitory concentration (IC50) in assay [8] is over 10000 nM; in assay [9], 1470 nM.
Take `CN(CCc1ccccc1)S(=O)(=O)c1cccc(/C=C/C(=O)NO)c1` [CN89]: the IC50 is 5 nM in [1]; 3.4 nM in assay [2]; over 10000 nM in assay [7]; 5 nM in assay [3]; 32 nM in [4]; 150 nM in assay [5]. The half-maximal inhibitory concentration (IC50) in assay [8] was 500 nM; in assay [9], over 10000 nM.
With `O=C(/C=C/c1ccccc1)NO` [CN86], the IC50 is 133 nM in assay [1]; over 20000 nM in [6]; 151 nM in [2]; over 10000 nM in assay [7]; 21.7 nM in [3]; 470 nM in assay [4]. Moreover, the IC50 is 725 nM in [5], over 10000 nM in [8] and over 50000 nM in assay [9].
With `O=C(/C=C/c1ccc(CNCC2CCCCC2)c(F)c1)NO` [CN166], the IC50 in assay [1] worked out at 1.64 nM; in [2], 0.54 nM; in [3], 11.7 nM; in assay [4], 14.2 nM; in [5] it was 725 nM.
With `CN(C)CCOc1ccc2c(c1)C(c1ccc(C(=O)NO)cc1)=Nc1ccccc1O2` [CN56], the 50% inhibitory concentration (IC50) is 270 nM in assay [1], 97.8 nM in assay [2] and 160 nM in assay [4].
For `O=C(/C=C/c1ccc(CNCC2CCCCC2)cc1)NO` [CN143], the IC50 in [1] is 1.8 nM; in [6] it was over 20000 nM; in [2], 4.3 nM; in [7] it was 196 nM; in assay [3], 9.7 nM; in assay [5] it was 9600 nM. Also, the IC50 in [8] is 927 nM; in assay [9], over 10000 nM.
As for `O=C(/C=C/c1ccc(CN(CCF)CC23CC4CC(CC(C4)C2)C3)cc1)NO` [CN146], the IC50 in [1] is 221 nM; in [6] it was over 30000 nM; in [2] it was 470 nM; in [7] it was 5350 nM; in [3], 308 nM; in [5], over 30000 nM. Further, the values for the IC50 in assay [8] and in assay [9] were over 10000 nM and over 40000 nM, respectively.
As to `Cn1cc(CCNCc2ccc(/C=C/C(=O)NO)cc2)c2ccccc21` [CN107], the IC50 in [1] is 0.2 nM; in assay [6], 2040 nM; in [2], 0.4 nM; in assay [7], 99 nM; in assay [3], 1.6 nM; in assay [4], 1.2 nM. Moreover, the IC50 worked out at 1040 nM in assay [5], 655 nM in assay [8] and 4850 nM in [9].
Consider `CN(C)c1ccc(C(=O)NCCCCCCC(=O)NO)cc1` [CN52], for which the IC50 in assay [1] was 7.3 nM; in assay [2], 4.3 nM; in [4] it was 20.7 nM.
Regarding `CN(C)Cc1ccc(/C=C/C(=O)NO)cc1` [CN145], the IC50 is over 50000 nM in assay [1], 9240 nM in assay [2], over 70000 nM in [7] and 6820 nM in assay [3].
Turning to `CN(Cc1ccc2c(c1)CCC(C(=O)NO)=C2)CC12CC3CC(CC(C3)C1)C2` [CN141], the concentration for half-maximal inhibition (IC50) in assay [1] came out at 55.8 nM; in [6], 5510 nM; in [2], 97.9 nM; in assay [7], 207 nM; in assay [3], 14.4 nM; in assay [5], 2400 nM. Besides, the IC50 in assay [8] was 389 nM; in assay [9], over 10000 nM.
As to `O=C(/C=C/c1ccc(CNCC23CC4CC(CC(C4)C2)C3)cc1)NO` [CN132], the IC50 in [1] was 0.95 nM; in assay [6], over 20000 nM; in [2] it was 1.2 nM; in [3], 1.7 nM; in [4], 7.8 nM; in assay [5] it was over 10000 nM. The IC50 in [9] is over 10000 nM.
`CN(Cc1ccc(/C=C/C(=O)NO)cc1F)CC1CCCCC1` [CN167]: the concentration for half-maximal inhibition (IC50) was found to be 5.43 nM in [1]; 4.83 nM in assay [2]; 18.7 nM in [3]; 40 nM in assay [4]; 1810 nM in [5].
